In US11339193B2, “CDP protein secretion inhibitors” (KEZAR LIFE SCIENCES, priority 2018, dated 2022):
pEC50, pIC50: −log10 of the molar value. Peptide text beside a SMILES is read from it.

What was measured:
Assay type in all cases: cell-based
[1] = tested on: Prl-ss+10aa/Gaussia Luciferase; test: Prl-ss-Gluc assay (constitutively active or 24 hr Dox inducible); conditions: Flp-In 293 T-REx cells, 24 hours; read-out: Prl IC50
How it was run: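 Stable Flp-In 293 T-REx lines express Prl signal sequence+10aa fused to Gaussia luciferase, either constitutively (pcDNA5/FRT) or under the T-REx promoter (pcDNA5/FRT/TO). Cells plated the day before; compounds in DMSO/media (with doxycycline for the inducible line, 24 h) incubated at 37 °C, 5% CO2.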

[2] = tested on: U266B1 multiple myeloma cell line; test: U266 assay (cell viability, Celltiter-Glo); conditions: Homo sapiens, U-266; 48 hours, cell viability
Protocol: Cells were plated in 384-well tissue culture plates and treated with compound dilutions in DMSO/media. Plates were incubated at 37° C., 5% CO2 for 48 hours. After 48 hours, Celltiter-Glo@ (Promega) was added to each well and luciferase signal was quantified using Tecan Infinite M1000 Pro for cell viability determination.

[3] = tested on: HER3ss-Gluc; test: HER3ss assay; conditions: HEK-293T T-rex cells, transient transfection, doxycycline, 24 h; read-out: HER3 ss IC50
How it was run: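 HEK-293T T-REx cells were transiently transfected with HER3 signal sequence (plus four mature-domain residues) fused upstream of mature Gaussia luciferase. Cells were induced with doxycycline (1 μg/ml) and exposed to increasing compound concentrations for 24 h, then secreted luciferase in the conditioned medium was read by luminescence.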

[4] = tested on: PD1-ss+10aa/Gaussia Luciferase; test: Dox induced PD1-ss-Gluc assay; conditions: Flp-In 293 T-REx cells, doxycycline, 24 hours; read-out: PD1ss Gluc IC50
How it was run: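 Stable Flp-In 293 T-REx line expressing doxycycline-inducible Gaussia luciferase fused to the PD1 signal sequence plus 10 amino acids. Cells plated the day before, then exposed to compound dilutions in DMSO/media containing doxycycline at 37 °C, 5% CO2.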

[5] = tested on: JJN3 plasma cell leukemia cell line; test: JJN-3 assay (Alamar blue); conditions: Homo sapiens, 72 h
How it was run: (§1)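 For both lines, 5000 cells/well were exposed to compound or a 1% DMSO-medium control for 72 h unless otherwise specified. Signal was normalized to the DMSO control.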

[6] = tested on: BT474 breast tumor cell line; test: BT474 assay (Alamar blue); conditions: Homo sapiens, BT-474, 72 h
How it was run: as §1

[7] = tested on: TNFα-FL/Gaussia Luciferase; test: Dox induced TNFα-FL-Gluc assay; conditions: Flp-In 293 T-REx cells, doxycycline, 24 hours; read-out: TNFa FL Gluc IC50
How it was run: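 Stable Flp-In 293 T-REx line expressing full-length TNFα (aa 1-233) fused at its C-terminus to Gaussia luciferase under doxycycline-inducible control. Cells plated the day before, then given compound dilutions in DMSO/media containing doxycycline and incubated at 37 °C, 5% CO2.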

[8] = tested on: VCAMss+10aa/Gaussia Luciferase; test: VCAM-ss-Gluc assay (constitutively active or Dox induced); conditions: Flp-In 293 T-REx cells, 24 hours
How it was run: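 Stable cell lines secreting a VCAM signal sequence+10aa/Gaussia luciferase fusion, expressed either constitutively or under T-REx doxycycline control. Cells plated the day before; compound dilutions in DMSO/media (with doxycycline for the induced line) added and incubated at 37° C, 5% CO2.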

[9] = tested on: NCI-H929 multiple myeloma cell line; test: H929 assay (cell viability, Celltiter-Glo); conditions: Homo sapiens, NCI-H929; 48 hours, cell viability; read-out: H929 EC50
How it was run: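 Cells plated in RPMI 1640 with 10% FBS and 2 mM glutamine, treated with compound dilutions in DMSO/media. Incubation 48 h at 37° C, 5% CO2. Viability from luciferase luminescence signal.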

With CC(C)C[C@@H]1NC(=O)[C@H](Cc2cn(Cc3ccc(Br)cc3)c3ccccc23)N(C)C(=O)[C@H](CC(C)C)NC(=O)[C@H](CC(C)C)N(C)C(=O)[C@H](CC(C)C)NC(=O)[C@@H](CCC#N)OC(=O)[C@H](C)N(C)C1=O [C-14] (HELM PEPTIDE1{L.[meA].[N#CCC[C@@H](O[*:1])C(=O)[*:2]].L.[meL].L.[CN([C@@H](Cc1cn(Cc2ccc(Br)cc2)c2ccccc12)C(=O)[*:2])[*:1]]}$PEPTIDE1,PEPTIDE1,1:R1-7:R2$$$V2.0) the pIC50 [1] was 6.44, the pEC50 [2] was 5.10 and the pIC50 [3] was 7.29. The pIC50 [4] was 7.74, the pEC50 [5] was 6.63 and the pEC50 [6] was 6.07. For the same compound, the pIC50 [7] was 6.97, the pIC50 [8] was 6.31 and the pEC50 [9] was 5.89.
Work on Cc1cc(Cn2cc(C[C@H]3C(=O)N[C@@H](CC(C)C)C(=O)N(C)[C@@H](C)C(=O)O[C@H](CCC#N)C(=O)N[C@@H](CC(C)C)C(=O)N(C)[C@@H](CC(C)C)C(=O)N[C@@H](CC(C)C)C(=O)N3C)c3ccccc32)no1 [C-15] (HELM PEPTIDE1{L.[meA].[N#CCC[C@@H](O[*:1])C(=O)[*:2]].L.[meL].L.[Cc1cc(Cn2cc(C[C@@H](C(=O)[*:2])N(C)[*:1])c3ccccc32)no1]}$PEPTIDE1,PEPTIDE1,1:R1-7:R2$$$V2.0) yielded a pIC50 [1] of 5.19, a pEC50 [2] of 4.69 and a pIC50 [3] of 6.55. For the same compound, the pIC50 [4] was 6.32, the pEC50 [5] was 5.31 and the pEC50 [6] was 5.58. It also gave a pIC50 [7] of 5.33, a pIC50 [8] of 5.40 and a pEC50 [9] of 5.23.
